Target: T1, Human immunodeficiency virus type 1 protease (Human immunodeficiency virus 1, UniProt Q72874)
Assay: Inhibitory activity against HIV protease at pH 4.7

| IC50 | SMILES |
| --- | --- |
| 17 nM | CC(C)(C)c1ccccc1Sc1c(O)cc(-c2ccccc2)oc1=O |
| 7 nM | Cc1ccc(C(C)C)c(SC2=C(O)OC(CCc3ccccc3)(c3ccccc3)CC2=O)c1 (stereo not drawn) |
| 28 nM | Cc1ccc(C(C)(C)C)c(Sc2c(O)cc(-c3ccccc3)oc2=O)c1 |
| 14 nM | CC(C)c1ccccc1SC1=C(O)OC(CCc2ccccc2)(c2ccccc2)CC1=O (stereo not drawn) |
| 10 nM | Cc1ccc(C(C)(C)C)c(SC2=C(O)OC(CCc3ccccc3)(c3ccccc3)CC2=O)c1 (stereo not drawn) |
| 3 nM | CC(C)(C)c1ccccc1SC1=C(O)OC(CCc2ccccc2)(c2ccccc2)CC1=O (stereo not drawn) |
| 17 nM | Cc1ccc(C(C)C)c(Sc2c(O)cc(-c3ccccc3)oc2=O)c1 |

Target: T1, Human immunodeficiency virus type 1 protease
Assay: Inhibitory activity against HIV protease

| SMILES | IC50 |
| --- | --- |
| Cc1ccc(C(C)C)c(SC2=C(O)O[C@@](CCc3ccccc3)(c3ccccc3)CC2=O)c1 | 130 nM |
| CC(C)c1ccc(C(C)C)c(SC2=C(O)OC(CCc3ccccc3)(c3ccccc3)CC2=O)c1 (stereo not drawn) | 14 nM |
| CC(C)CCCC1(c2ccccc2)CC(=O)C(SCCc2ccccc2)=C(O)O1 (stereo not drawn) | 155 nM |
| O=C1CC(c2ccccc2)(c2ccccc2)OC(O)=C1SCCc1ccccc1 | 152 nM |
| O=C1CC(c2ccccc2)(c2ccccc2)OC(O)=C1Sc1ccccc1 | 110 nM |
| O=C1CC2(CCCc3ccccc32)OC(O)=C1SCCc1ccccc1 (stereo not drawn) | 1300 nM |
| CC(C)(C)c1ccccc1SC1=C(O)OC(c2ccccc2)(c2ccccc2)CC1=O | 49 nM |
| O=C1CC(c2ccccc2)(c2ccccc2)OC(O)=C1Sc1ccccc1C1CCCC1 | 14 nM |
| NC(=O)CCCC1(c2ccccc2)CC(=O)C(SCCc2ccccc2)=C(O)O1 (stereo not drawn) | 1300 nM |
| CN(CC1(c2ccccc2)CC(=O)C(SCCc2ccccc2)=C(O)O1)c1ccccc1 (stereo not drawn) | 2280 nM |
| CCC(C)c1ccccc1SC1=C(O)OC(CCc2ccccc2)(c2ccccc2)CC1=O (stereo not drawn) | 10 nM |
| O=C1CC(c2ccccc2)(c2ccccc2)OC(O)=C1Sc1ccccc1C1CCCCC1 | 127 nM |
| O=C1CC(c2ccccc2)OC(O)=C1SCCc1ccccc1 (stereo not drawn) | 2100 nM |
| Cc1ccccc1SC1=C(O)OC(CCc2ccccc2)(c2ccccc2)CC1=O (stereo not drawn) | 73 nM |
| O=C1CC(c2ccccc2)OC(O)=C1SCc1ccccc1 (stereo not drawn) | 8900 nM |
| O=C1CC(c2ccccc2)(c2ccncc2)OC(O)=C1SCCc1ccccc1 (stereo not drawn) | 790 nM |
| O=C1CC(CCc2ccccc2)(c2ccccc2)OC(O)=C1Sc1ccccc1 (stereo not drawn) | 130 nM |

| SMILES | IC50 |
| --- | --- |
| CCC(C)c1ccccc1SC1=C(O)OC(c2ccccc2)(c2ccccc2)CC1=O (stereo not drawn) | 17 nM |
| CC(C)c1ccc(C(C)(C)C)c(SC2=C(O)OC(CCc3ccccc3)(c3ccccc3)CC2=O)c1 (stereo not drawn) | 47 nM |
| Cc1ccc(C(C)C)c(SC2=C(O)O[C@](CCc3ccccc3)(c3ccccc3)CC2=O)c1 | 6 nM |
| O=C1CC2(CCc3ccccc32)OC(O)=C1SCc1ccccc1 (stereo not drawn) | 11800 nM |
| CC(C)c1ccc(C(C)C)c(SC2=C(O)OC(c3ccccc3)(c3ccccc3)CC2=O)c1 | 119 nM |
| Cc1ccc(C(C)(C)C)c(SC2=C(O)OC(c3ccccc3)(c3ccccc3)CC2=O)c1 | 12 nM |
| NC(=O)CCCCC1(c2ccccc2)CC(=O)C(SCCc2ccccc2)=C(O)O1 (stereo not drawn) | 338 nM |
| O=C1CC(CCc2ccccc2)(c2ccccc2)OC(O)=C1SCCc1ccccc1 (stereo not drawn) | 51 nM |
| Cc1ccccc1SC1=C(O)OC(c2ccccc2)(c2ccccc2)CC1=O | 388 nM |
| O=C(O)CCCCC1(c2ccccc2)CC(=O)C(SCCc2ccccc2)=C(O)O1 (stereo not drawn) | 5 nM |
| CC(C)c1ccccc1SC1=C(O)OC(c2ccccc2)(c2ccccc2)CC1=O | 23 nM |
| CCCCCCC1(c2ccccc2)CC(=O)C(SCCc2ccccc2)=C(O)O1 (stereo not drawn) | 112 nM |
| O=C1CC(c2ccccc2)(c2ccccc2)OC(O)=C1SCc1ccccc1 | 262 nM |
| O=c1cc(-c2ccccc2)oc(O)c1Sc1ccccc1 | 3100 nM |
| CC(C)CCC1(c2ccccc2)CC(=O)C(Sc2ccccc2)=C(O)O1 (stereo not drawn) | 1400 nM |
| Cc1ccc(C(C)C)c(SC2=C(O)OC(c3ccccc3)(c3ccccc3)CC2=O)c1 | 38 nM |

The remaining lines, values ahead:

| IC50 | SMILES |
| --- | --- |
| 183 nM | CC(C)CCCC1(c2ccccc2)CC(=O)C(SCc2ccccc2)=C(O)O1 (stereo not drawn) |
| 2300 nM | O=C1CC2(CCCc3ccccc32)OC(O)=C1SCc1ccccc1 (stereo not drawn) |
| 440 nM | CC(C)CC1(c2ccccc2)CC(=O)C(SCc2ccccc2)=C(O)O1 (stereo not drawn) |
| 84 nM | CCCCCC1(c2ccccc2)CC(=O)C(SCCc2ccccc2)=C(O)O1 (stereo not drawn) |
| 98 nM | CC(C)CCC1(c2ccccc2)CC(=O)C(SCc2ccccc2)=C(O)O1 (stereo not drawn) |
| 1200 nM | CC(C)CC1(c2ccccc2)CC(=O)C(SCCc2ccccc2)=C(O)O1 (stereo not drawn) |
| 1260 nM | O=C1CC(CCCCO)(c2ccccc2)OC(O)=C1SCc1ccccc1 (stereo not drawn) |
| 32 nM | O=C1CC(CCc2ccccc2)(c2ccccc2)OC(O)=C1Sc1ccccc1C1CCCCC1 (stereo not drawn) |
| 137 nM | O=C1CC(CC2CCCCC2)(c2ccccc2)OC(O)=C1SCc1ccccc1 (stereo not drawn) |
| 96 nM | CC(C)CCC1(c2ccccc2)CC(=O)C(SCCc2ccccc2)=C(O)O1 (stereo not drawn) |
| 270 nM | CCCCC1(c2ccccc2)CC(=O)C(SCc2ccccc2)=C(O)O1 (stereo not drawn) |
| 270 nM | O=C(O)CCCC1(c2ccccc2)CC(=O)C(SCCc2ccccc2)=C(O)O1 (stereo not drawn) |
| 60 nM | O=C1CC(CCc2ccccc2)(c2ccccc2)OC(O)=C1SCc1ccccc1 (stereo not drawn) |
| 1200 nM | O=C(O)CCC1(c2ccccc2)CC(=O)C(SCCc2ccccc2)=C(O)O1 (stereo not drawn) |
| 327 nM | CCCCCC1(c2ccccc2)CC(=O)C(SCc2ccccc2)=C(O)O1 (stereo in doubt; 15b) |
| 400 nM | CCCCC1(c2ccccc2)CC(=O)C(SCCc2ccccc2)=C(O)O1 (stereo not drawn) |
| 510 nM | O=C1CC(CC2CCCC2)(c2ccccc2)OC(O)=C1SCCc1ccccc1 (stereo not drawn) |
| 290 nM | CCCC1(c2ccccc2)CC(=O)C(SCc2ccccc2)=C(O)O1 (stereo not drawn) |
| 124 nM | CCCCCC1(c2ccccc2)CC(=O)C(SCc2ccccc2)=C(O)O1 (stereo in doubt; 4b) |
| 88 nM | O=C1CC(CC2CCCC2)(c2ccccc2)OC(O)=C1SCc1ccccc1 (stereo not drawn) |
| 5100 nM | CCCC1(c2ccccc2)CC(=O)C(SCCc2ccccc2)=C(O)O1 (stereo not drawn) |
| 180 nM | CCCCCCC1(c2ccccc2)CC(=O)C(SCc2ccccc2)=C(O)O1 (stereo not drawn) |
| 172 nM | O=C1CC(COc2ccccc2)(c2ccccc2)OC(O)=C1SCc1ccccc1 (stereo not drawn) |

Target: T1, Human immunodeficiency virus type 1 protease
Assay: Inhibitory activity against HIV protease at pH 6.2

| IC50 | SMILES |
| --- | --- |
| 79 nM | Cc1ccc(C(C)C)c(SC2=C(O)OC(CCc3ccccc3)(c3ccccc3)CC2=O)c1 (stereo not drawn) |
| 282 nM | Cc1ccc(C(C)(C)C)c(Sc2c(O)cc(-c3ccccc3)oc2=O)c1 |
| 97 nM | CC(C)c1ccccc1SC1=C(O)OC(CCc2ccccc2)(c2ccccc2)CC1=O (stereo not drawn) |
| 35 nM | Cc1ccc(C(C)(C)C)c(SC2=C(O)OC(CCc3ccccc3)(c3ccccc3)CC2=O)c1 (stereo not drawn) |
| 104 nM | CC(C)(C)c1ccccc1SC1=C(O)OC(CCc2ccccc2)(c2ccccc2)CC1=O (stereo not drawn) |

Reference: ChEMBL document CHEMBL1130235, “4-hydroxy-5,6-dihydropyrones. 2. Potent non-peptide inhibitors of HIV protease” (J Med Chem, 1997)
